Reference: patent US20150148234A1, “HERBICIDE-RESISTANT SUNFLOWER PLANTS WITH MULTIPLE HERBICIDE RESISTANT ALLELES OF AHASL1 AND METHODS OF USE” (NIDERA S.A., priority 2013, published 2015)

What was measured:
Assay in all cases: imazapyr whole plant greenhouse test (Example 2)
Format in all cases: in vivo
sunflower line L1, A205V = tested on: sunflower line L1, A205V
Description: (§1) Seeds were sown in Petri dishes and, after germination, plantlets were transplanted to pots of 10 cm of diameter in a potting media consisting of equal parts of vermiculite, soil and sand. Plants were grown in a greenhouse under natural light conditions supplemented with 400 W sodium halide lamps to provide a 16 hr daylength. Day/night temperatures were 25 and 20 ° C., respectively. At the V2-V4 stage (Schneiter & Miller (1981) Crop Sci. 21:901-903) 10 plants of each genotype were randomly assigned to each treatment consisting of eight imazapyr doses (0, 40, 80, 160, 240, 320, 400 and 480 g ai/ha, corresponding to untreated, 0.5×, 1×, 2×, 3×, 4×, 5× and 6×, respectively), and a zero-time biomass determination. Experiment was arranged as a randomized block design with a full factorial (sunflower line×treatment) arrangement of treatments and 10 replications.
(§2) On the day of herbicide application ten plants of each genotype were cut at the cotyledonal node and dried at 60° C. for 48 hrs for zero-time dried weight determination.
(§3) The remaining plants were maintained for 14 days after imazapyr treatment (DAT) and their height, Phytotoxicity Index (PI) and above ground dry biomass were determined Height was determined as the distance between the cotyledonal node and the apex of each plant. Above ground biomass data from each line were converted to biomass accumulation after application by subtracting the appropriate average zero- time biomass from each sample. Dry biomass data were converted to percentages of the untreated control plants within each line to allow direct comparisons between groups.

[1] = tested on: sunflower hybrid H1 (L1 × L2), A205V
Description: as §1, §2, §3

[2] = tested on: sunflower hybrid H2 (L3 × L4), A122T
Description: as §1, §2, §3

[3] = tested on: sunflower hybrid H3 (L3 × L2), A205V + A122T; settings: dose 0.5 (0.5x, 40 g ai/ha)
Description: as §1, §2, §3

CC(C)C1(C)N=C(c2ncccc2C(=O)O)NC1=O (stereo not shown) [imazapyr]
Phytotoxicity Index (0-9) 14 days after treatment (sunflower line L1, A205V; dose 0.5 (0.5x, 40 g ai/ha)): 0 | biomass accumulation 14 days after treatment, % of untreated (sunflower line L1, A205V; dose 0.5 (0.5x, 40 g ai/ha)): 91.7% | plant height 14 days after treatment, % of untreated (sunflower line L1, A205V; dose 0.5 (0.5x, 40 g ai/ha)): 100.0% | Phytotoxicity Index (0-9) 14 days after treatment (sunflower line L1, A205V; dose 1 (1x, 80 g ai/ha)): 0 | biomass accumulation 14 days after treatment, % of untreated (sunflower line L1, A205V; dose 1 (1x, 80 g ai/ha)): 81.7% | plant height 14 days after treatment, % of untreated (sunflower line L1, A205V; dose 1 (1x, 80 g ai/ha)): 100.0% | Phytotoxicity Index (0-9) 14 days after treatment (sunflower line L1, A205V; dose 2 (2x, 160 g ai/ha)): 1.6 | biomass accumulation 14 days after treatment, % of untreated (sunflower line L1, A205V; dose 2 (2x, 160 g ai/ha)): 54.7% | plant height 14 days after treatment, % of untreated (sunflower line L1, A205V; dose 2 (2x, 160 g ai/ha)): 78.9% | Phytotoxicity Index (0-9) 14 days after treatment (sunflower line L1, A205V; dose 3 (3x, 240 g ai/ha)): 5.1 | biomass accumulation 14 days after treatment, % of untreated (sunflower line L1, A205V; dose 3 (3x, 240 g ai/ha)): 35.7% | plant height 14 days after treatment, % of untreated (sunflower line L1, A205V; dose 3 (3x, 240 g ai/ha)): 50.0% | Phytotoxicity Index (0-9) 14 days after treatment (sunflower line L1, A205V; dose 4 (4x, 320 g ai/ha)): 8.4 | biomass accumulation 14 days after treatment, % of untreated (sunflower line L1, A205V; dose 4 (4x, 320 g ai/ha)): 25.3% | plant height 14 days after treatment, % of untreated (sunflower line L1, A205V; dose 4 (4x, 320 g ai/ha)): 38.1% | Phytotoxicity Index (0-9) 14 days after treatment (sunflower line L1, A205V; dose 5 (5x, 400 g ai/ha)): 8.9 | biomass accumulation 14 days after treatment, % of untreated (sunflower line L1, A205V; dose 5 (5x, 400 g ai/ha)): 19.8% | plant height 14 days after treatment, % of untreated (sunflower line L1, A205V; dose 5 (5x, 400 g ai/ha)): 31.8% | Phytotoxicity Index (0-9) 14 days after treatment (sunflower line L1, A205V; dose 6 (6x, 480 g ai/ha)): 8.9 | biomass accumulation 14 days after treatment, % of untreated (sunflower line L1, A205V; dose 6 (6x, 480 g ai/ha)): 19.5% | plant height 14 days after treatment, % of untreated (sunflower line L1, A205V; dose 6 (6x, 480 g ai/ha)): 34.7% | Phytotoxicity Index (0-9) 14 days after treatment ([1]; dose 0.5 (0.5x, 40 g ai/ha)): 0 | biomass accumulation 14 days after treatment, % of untreated ([1]; dose 0.5 (0.5x, 40 g ai/ha)): 95.0% | plant height 14 days after treatment, % of untreated ([1]; dose 0.5 (0.5x, 40 g ai/ha)): 99.5% | Phytotoxicity Index (0-9) 14 days after treatment ([1]; dose 1 (1x, 80 g ai/ha)): 0 | biomass accumulation 14 days after treatment, % of untreated ([1]; dose 1 (1x, 80 g ai/ha)): 89.6% | plant height 14 days after treatment, % of untreated ([1]; dose 1 (1x, 80 g ai/ha)): 99.5% | Phytotoxicity Index (0-9) 14 days after treatment ([1]; dose 2 (2x, 160 g ai/ha)): 1.8 | biomass accumulation 14 days after treatment, % of untreated ([1]; dose 2 (2x, 160 g ai/ha)): 75.5% | plant height 14 days after treatment, % of untreated ([1]; dose 2 (2x, 160 g ai/ha)): 78.6% | Phytotoxicity Index (0-9) 14 days after treatment ([1]; dose 3 (3x, 240 g ai/ha)): 6.4 | biomass accumulation 14 days after treatment, % of untreated ([1]; dose 3 (3x, 240 g ai/ha)): 60.4% | plant height 14 days after treatment, % of untreated ([1]; dose 3 (3x, 240 g ai/ha)): 48.4% | Phytotoxicity Index (0-9) 14 days after treatment ([1]; dose 4 (4x, 320 g ai/ha)): 8.0 | biomass accumulation 14 days after treatment, % of untreated ([1]; dose 4 (4x, 320 g ai/ha)): 46.5% | plant height 14 days after treatment, % of untreated ([1]; dose 4 (4x, 320 g ai/ha)): 28.9% | Phytotoxicity Index (0-9) 14 days after treatment ([1]; dose 5 (5x, 400 g ai/ha)): 8.9 | biomass accumulation 14 days after treatment, % of untreated ([1]; dose 5 (5x, 400 g ai/ha)): 38.9% | plant height 14 days after treatment, % of untreated ([1]; dose 5 (5x, 400 g ai/ha)): 25.3% | Phytotoxicity Index (0-9) 14 days after treatment ([1]; dose 6 (6x, 480 g ai/ha)): 9.0 | biomass accumulation 14 days after treatment, % of untreated ([1]; dose 6 (6x, 480 g ai/ha)): 33.9% | plant height 14 days after treatment, % of untreated ([1]; dose 6 (6x, 480 g ai/ha)): 27.1% | Phytotoxicity Index (0-9) 14 days after treatment ([2]; dose 0.5 (0.5x, 40 g ai/ha)): 0.5 | biomass accumulation 14 days after treatment, % of untreated ([2]; dose 0.5 (0.5x, 40 g ai/ha)): 100% | plant height 14 days after treatment, % of untreated ([2]; dose 0.5 (0.5x, 40 g ai/ha)): 99.2% | Phytotoxicity Index (0-9) 14 days after treatment ([2]; dose 1 (1x, 80 g ai/ha)): 0.5 | biomass accumulation 14 days after treatment, % of untreated ([2]; dose 1 (1x, 80 g ai/ha)): 97.2% | plant height 14 days after treatment, % of untreated ([2]; dose 1 (1x, 80 g ai/ha)): 98.6% | Phytotoxicity Index (0-9) 14 days after treatment ([2]; dose 2 (2x, 160 g ai/ha)): 0.5 | biomass accumulation 14 days after treatment, % of untreated ([2]; dose 2 (2x, 160 g ai/ha)): 97.9% | plant height 14 days after treatment, % of untreated ([2]; dose 2 (2x, 160 g ai/ha)): 100.3% | Phytotoxicity Index (0-9) 14 days after treatment ([2]; dose 3 (3x, 240 g ai/ha)): 0.5 | biomass accumulation 14 days after treatment, % of untreated ([2]; dose 3 (3x, 240 g ai/ha)): 98.2% | plant height 14 days after treatment, % of untreated ([2]; dose 3 (3x, 240 g ai/ha)): 99.6% | Phytotoxicity Index (0-9) 14 days after treatment ([2]; dose 4 (4x, 320 g ai/ha)): 0.5 | biomass accumulation 14 days after treatment, % of untreated ([2]; dose 4 (4x, 320 g ai/ha)): 97.8% | plant height 14 days after treatment, % of untreated ([2]; dose 4 (4x, 320 g ai/ha)): 101.0% | Phytotoxicity Index (0-9) 14 days after treatment ([2]; dose 5 (5x, 400 g ai/ha)): 0.5 | biomass accumulation 14 days after treatment, % of untreated ([2]; dose 5 (5x, 400 g ai/ha)): 85.1% | plant height 14 days after treatment, % of untreated ([2]; dose 5 (5x, 400 g ai/ha)): 87.0% | Phytotoxicity Index (0-9) 14 days after treatment ([2]; dose 6 (6x, 480 g ai/ha)): 0.5 | biomass accumulation 14 days after treatment, % of untreated ([2]; dose 6 (6x, 480 g ai/ha)): 79.5% | plant height 14 days after treatment, % of untreated ([2]; dose 6 (6x, 480 g ai/ha)): 79.6% | Phytotoxicity Index (0-9) 14 days after treatment [3]: 0.5
